Earlier results on 2 molecules are cited in patent publication US20060234993A1, “Use of androstane derivatives for enhancing physical performance” (priority 2005, published 2006).

Like-named read-outs stand apart in the source and are kept apart here.

The conditions of data set [1]: in vivo.

For the molecule `C[C@]12CC[C@@H](O)C[C@H]1CC[C@@H]1[C@@H]2CC[C@]2(C)C(=O)CC[C@@H]12` [Etiocholanolone, 3-alpha (beta)-hydroxy-5β-androstan-17-one], the body weight result in the data set on mice (normal mice) and with mice (obese mice) was “reduce body weight” each time.
With `C[C@]12CC[C@H](O)CC1=CC[C@@H]1[C@@H]2CC[C@]2(C)C(=O)CC[C@@H]12` [DHEA, dehydroepiandrosterone], the “estrogenic and androgenic side effects, including gynecomastia, water retention (edema), fat retention, prostate enlargement, acne, hair loss” value in data set [1] was “negative estrogenic and androgenic side effects”.
